Source: ChEMBL document CHEMBL5465560, “Selectivity Literature for EUbOPEN Chemogenomic Library” (2024)
Each block holds one compound with its values, some of them ahead of it.

Key:
[1] = biological target: Calcium/calmodulin-dependent protein kinase kinase 2 (Homo sapiens) (UniProt Q96RR4); experiment: Selectivity interaction (Ambit KINOMEscan and KiNATiv profiling in Jurkat cells) EUB0000090b CAMKK2; type: cell-based; settings: at 1 µM
[2] = biological target: BDNF/NT-3 growth factors receptor (Homo sapiens) (UniProt Q16620); experiment: Selectivity interaction (KinomeScan (DiscoverX)) EUB0000655a NTRK2; settings: at 10 µM
[3] = biological target: Tyrosine-protein kinase receptor Tie-1 (Homo sapiens) (UniProt P35590); experiment: Selectivity interaction (KinomeScan (DiscoverX)) EUB0001619a TIE1; settings: at 1 µM
[4] = Selectivity interaction (KinomeScan (DiscoverX)) EUB0001619a CDK2H; settings: at 1 µM
[5] = biological target: T1, Serine/threonine-protein kinase 36 (Homo sapiens) (UniProt Q9NRP7); experiment: Selectivity interaction (KinomeScan (DiscoverX)) EUB0000595a STK36; settings: at 10 µM
T1 sequence (whole entry): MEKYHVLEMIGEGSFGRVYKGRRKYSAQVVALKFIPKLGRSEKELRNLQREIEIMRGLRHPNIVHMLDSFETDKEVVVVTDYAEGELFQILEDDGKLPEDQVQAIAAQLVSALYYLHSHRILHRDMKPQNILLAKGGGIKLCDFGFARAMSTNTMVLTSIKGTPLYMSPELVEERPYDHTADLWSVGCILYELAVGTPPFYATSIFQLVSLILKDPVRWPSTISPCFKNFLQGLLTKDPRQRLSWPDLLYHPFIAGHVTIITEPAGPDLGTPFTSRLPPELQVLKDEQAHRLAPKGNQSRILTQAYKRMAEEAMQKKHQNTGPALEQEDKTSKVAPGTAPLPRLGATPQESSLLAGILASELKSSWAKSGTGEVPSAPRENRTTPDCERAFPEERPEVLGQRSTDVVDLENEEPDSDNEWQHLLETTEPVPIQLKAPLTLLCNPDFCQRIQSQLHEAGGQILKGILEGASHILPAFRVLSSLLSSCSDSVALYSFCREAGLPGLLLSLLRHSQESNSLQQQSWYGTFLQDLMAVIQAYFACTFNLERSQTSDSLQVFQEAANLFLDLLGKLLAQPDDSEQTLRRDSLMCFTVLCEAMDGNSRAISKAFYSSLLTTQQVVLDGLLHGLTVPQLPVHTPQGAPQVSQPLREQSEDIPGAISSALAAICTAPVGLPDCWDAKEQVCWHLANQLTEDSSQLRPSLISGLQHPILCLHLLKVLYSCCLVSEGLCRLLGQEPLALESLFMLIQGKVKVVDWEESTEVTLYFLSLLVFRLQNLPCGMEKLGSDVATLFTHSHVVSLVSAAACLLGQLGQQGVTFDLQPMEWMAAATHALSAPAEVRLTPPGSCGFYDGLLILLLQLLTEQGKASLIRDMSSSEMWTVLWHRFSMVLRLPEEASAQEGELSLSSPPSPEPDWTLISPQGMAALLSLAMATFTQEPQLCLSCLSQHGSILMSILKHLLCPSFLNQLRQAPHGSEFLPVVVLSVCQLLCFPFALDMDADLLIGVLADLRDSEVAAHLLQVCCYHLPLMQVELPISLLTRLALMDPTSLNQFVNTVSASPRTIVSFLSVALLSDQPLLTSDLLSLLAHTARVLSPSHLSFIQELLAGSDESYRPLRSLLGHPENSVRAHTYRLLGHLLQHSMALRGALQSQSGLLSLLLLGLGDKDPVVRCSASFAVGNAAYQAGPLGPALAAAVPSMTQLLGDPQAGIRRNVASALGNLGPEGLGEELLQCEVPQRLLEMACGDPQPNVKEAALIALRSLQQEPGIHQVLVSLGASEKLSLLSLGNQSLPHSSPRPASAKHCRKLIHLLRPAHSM

[6] = biological target: T2, Protein arginine N-methyltransferase 7 (Homo sapiens) (UniProt Q9NVM4); settings: at 10 µM
T2 sequence (whole entry): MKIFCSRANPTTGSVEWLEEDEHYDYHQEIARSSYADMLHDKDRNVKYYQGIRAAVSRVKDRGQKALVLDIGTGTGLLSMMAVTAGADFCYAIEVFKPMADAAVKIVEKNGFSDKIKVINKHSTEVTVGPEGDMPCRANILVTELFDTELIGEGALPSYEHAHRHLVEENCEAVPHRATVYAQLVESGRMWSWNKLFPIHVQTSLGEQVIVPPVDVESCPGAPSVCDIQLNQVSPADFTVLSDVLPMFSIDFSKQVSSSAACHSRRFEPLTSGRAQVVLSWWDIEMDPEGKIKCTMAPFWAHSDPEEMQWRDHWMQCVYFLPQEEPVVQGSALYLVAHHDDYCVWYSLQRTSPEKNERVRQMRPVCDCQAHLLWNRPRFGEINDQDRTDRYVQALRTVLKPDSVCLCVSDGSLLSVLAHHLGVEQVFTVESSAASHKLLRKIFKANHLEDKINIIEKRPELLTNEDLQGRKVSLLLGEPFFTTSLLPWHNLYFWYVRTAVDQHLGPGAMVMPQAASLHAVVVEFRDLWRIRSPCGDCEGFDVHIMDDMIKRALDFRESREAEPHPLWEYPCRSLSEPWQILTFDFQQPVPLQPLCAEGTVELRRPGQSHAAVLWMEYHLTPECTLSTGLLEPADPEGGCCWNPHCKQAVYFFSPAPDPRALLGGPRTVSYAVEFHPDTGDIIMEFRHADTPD

[7] = biological target: Serine/threonine-protein kinase N3 (Homo sapiens) (UniProt Q6P5Z2); experiment: Selectivity interaction (ProQinase) EUB0000171b PKN3
[8] = biological target: Protein polybromo-1 (Homo sapiens) (UniProt Q86U86); experiment: Selectivity interaction (Human bromodomain panel (DSF assay)) EUB0000233b PBRM1
[9] = biological target: Mitogen-activated protein kinase 8 (Homo sapiens, UniProt P45983); experiment: Selectivity interaction (LanthaScreen Eu Kinase Binding Assay) EUB0001632a MAPK8; settings: at 10 µM
Mitogen-activated protein kinase 8, sequence (P45983 whole entry): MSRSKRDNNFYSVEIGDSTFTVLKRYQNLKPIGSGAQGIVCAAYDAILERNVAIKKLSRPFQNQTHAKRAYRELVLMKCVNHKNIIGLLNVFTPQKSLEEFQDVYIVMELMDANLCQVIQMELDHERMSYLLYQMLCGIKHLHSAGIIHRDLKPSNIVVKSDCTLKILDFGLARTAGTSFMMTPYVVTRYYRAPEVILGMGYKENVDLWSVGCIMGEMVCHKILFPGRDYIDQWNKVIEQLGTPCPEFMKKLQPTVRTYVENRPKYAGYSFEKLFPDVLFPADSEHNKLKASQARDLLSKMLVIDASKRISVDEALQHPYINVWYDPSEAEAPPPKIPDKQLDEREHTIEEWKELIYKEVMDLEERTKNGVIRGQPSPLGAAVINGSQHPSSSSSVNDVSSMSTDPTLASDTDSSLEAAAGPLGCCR

Serine/threonine-protein kinase N3 (Homo sapiens), sequence (Q6P5Z2 whole entry, looked up): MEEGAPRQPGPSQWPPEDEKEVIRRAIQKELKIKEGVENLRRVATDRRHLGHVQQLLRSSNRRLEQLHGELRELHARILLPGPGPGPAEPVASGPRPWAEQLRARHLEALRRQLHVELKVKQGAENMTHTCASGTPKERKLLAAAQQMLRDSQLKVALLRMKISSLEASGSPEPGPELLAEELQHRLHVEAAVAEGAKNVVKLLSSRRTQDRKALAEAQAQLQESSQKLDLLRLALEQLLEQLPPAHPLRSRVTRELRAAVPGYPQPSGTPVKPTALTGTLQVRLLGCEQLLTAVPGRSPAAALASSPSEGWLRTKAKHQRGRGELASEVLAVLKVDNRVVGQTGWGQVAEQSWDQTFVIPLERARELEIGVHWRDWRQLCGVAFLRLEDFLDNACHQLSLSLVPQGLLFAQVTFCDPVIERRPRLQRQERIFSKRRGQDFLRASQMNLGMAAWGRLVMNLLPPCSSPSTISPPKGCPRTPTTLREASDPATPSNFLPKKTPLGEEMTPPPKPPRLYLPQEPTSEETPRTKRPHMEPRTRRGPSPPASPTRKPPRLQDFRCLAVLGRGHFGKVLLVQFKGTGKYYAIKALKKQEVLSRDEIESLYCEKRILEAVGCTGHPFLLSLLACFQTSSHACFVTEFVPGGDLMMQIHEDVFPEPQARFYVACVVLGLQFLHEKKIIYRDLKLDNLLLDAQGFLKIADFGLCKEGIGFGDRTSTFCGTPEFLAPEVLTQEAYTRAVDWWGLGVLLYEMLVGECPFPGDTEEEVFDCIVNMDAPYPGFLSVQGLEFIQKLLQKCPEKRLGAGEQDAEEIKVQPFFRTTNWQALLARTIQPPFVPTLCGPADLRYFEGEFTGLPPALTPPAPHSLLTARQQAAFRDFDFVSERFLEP
BDNF/NT-3 growth factors receptor (Homo sapiens), sequence (Q16620 32-822 limits assumed): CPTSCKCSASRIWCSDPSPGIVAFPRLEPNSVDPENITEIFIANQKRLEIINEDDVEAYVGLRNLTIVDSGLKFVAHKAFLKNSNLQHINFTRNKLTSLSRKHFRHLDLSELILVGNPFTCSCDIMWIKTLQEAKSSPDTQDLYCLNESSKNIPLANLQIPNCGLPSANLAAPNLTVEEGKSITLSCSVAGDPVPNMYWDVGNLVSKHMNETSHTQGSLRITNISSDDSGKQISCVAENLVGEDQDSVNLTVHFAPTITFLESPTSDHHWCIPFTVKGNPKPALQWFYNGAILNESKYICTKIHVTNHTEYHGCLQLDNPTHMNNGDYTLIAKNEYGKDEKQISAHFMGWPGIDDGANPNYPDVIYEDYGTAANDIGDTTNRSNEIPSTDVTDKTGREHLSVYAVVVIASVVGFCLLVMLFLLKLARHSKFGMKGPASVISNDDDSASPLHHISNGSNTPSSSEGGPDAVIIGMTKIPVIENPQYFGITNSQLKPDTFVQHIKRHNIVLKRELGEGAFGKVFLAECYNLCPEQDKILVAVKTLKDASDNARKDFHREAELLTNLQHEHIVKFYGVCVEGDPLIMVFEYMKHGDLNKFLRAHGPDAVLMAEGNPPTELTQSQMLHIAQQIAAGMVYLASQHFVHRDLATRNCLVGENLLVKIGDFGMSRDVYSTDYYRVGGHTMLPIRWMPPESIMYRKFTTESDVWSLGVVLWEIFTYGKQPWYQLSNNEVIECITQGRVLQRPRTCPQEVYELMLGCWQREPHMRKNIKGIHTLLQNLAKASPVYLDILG
Tyrosine-protein kinase receptor Tie-1 (Homo sapiens), sequence (P35590 whole entry): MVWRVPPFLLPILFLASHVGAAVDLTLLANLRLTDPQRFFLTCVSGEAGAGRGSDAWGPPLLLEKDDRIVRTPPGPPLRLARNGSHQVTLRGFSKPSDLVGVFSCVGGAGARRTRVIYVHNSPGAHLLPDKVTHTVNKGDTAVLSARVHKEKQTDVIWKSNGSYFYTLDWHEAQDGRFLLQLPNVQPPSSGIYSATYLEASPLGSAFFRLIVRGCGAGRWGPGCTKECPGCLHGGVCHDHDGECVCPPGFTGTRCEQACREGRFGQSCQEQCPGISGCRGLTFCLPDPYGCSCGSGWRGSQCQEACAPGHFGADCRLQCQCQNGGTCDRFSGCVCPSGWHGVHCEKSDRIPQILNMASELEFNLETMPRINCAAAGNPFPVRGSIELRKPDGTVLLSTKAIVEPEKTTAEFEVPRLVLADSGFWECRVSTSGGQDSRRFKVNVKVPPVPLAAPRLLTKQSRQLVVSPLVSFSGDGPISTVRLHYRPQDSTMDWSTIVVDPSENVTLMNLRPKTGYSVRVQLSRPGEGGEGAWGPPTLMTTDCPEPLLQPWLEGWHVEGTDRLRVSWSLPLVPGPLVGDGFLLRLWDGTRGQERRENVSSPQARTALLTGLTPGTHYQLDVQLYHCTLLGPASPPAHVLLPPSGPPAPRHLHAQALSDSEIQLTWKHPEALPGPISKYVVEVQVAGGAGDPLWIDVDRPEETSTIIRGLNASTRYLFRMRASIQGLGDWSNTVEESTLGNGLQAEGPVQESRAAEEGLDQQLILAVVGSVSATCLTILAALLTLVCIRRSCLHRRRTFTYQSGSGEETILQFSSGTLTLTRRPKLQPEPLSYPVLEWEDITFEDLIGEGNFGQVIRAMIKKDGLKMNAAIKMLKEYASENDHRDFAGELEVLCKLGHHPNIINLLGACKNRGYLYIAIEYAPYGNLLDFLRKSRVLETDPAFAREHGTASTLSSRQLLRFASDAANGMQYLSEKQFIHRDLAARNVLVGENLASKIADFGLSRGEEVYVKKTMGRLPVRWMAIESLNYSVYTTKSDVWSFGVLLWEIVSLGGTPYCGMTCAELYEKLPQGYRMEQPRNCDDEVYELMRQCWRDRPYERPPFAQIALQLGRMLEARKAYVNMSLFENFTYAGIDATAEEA
Protein polybromo-1 (Homo sapiens), sequence (Q86U86 whole entry): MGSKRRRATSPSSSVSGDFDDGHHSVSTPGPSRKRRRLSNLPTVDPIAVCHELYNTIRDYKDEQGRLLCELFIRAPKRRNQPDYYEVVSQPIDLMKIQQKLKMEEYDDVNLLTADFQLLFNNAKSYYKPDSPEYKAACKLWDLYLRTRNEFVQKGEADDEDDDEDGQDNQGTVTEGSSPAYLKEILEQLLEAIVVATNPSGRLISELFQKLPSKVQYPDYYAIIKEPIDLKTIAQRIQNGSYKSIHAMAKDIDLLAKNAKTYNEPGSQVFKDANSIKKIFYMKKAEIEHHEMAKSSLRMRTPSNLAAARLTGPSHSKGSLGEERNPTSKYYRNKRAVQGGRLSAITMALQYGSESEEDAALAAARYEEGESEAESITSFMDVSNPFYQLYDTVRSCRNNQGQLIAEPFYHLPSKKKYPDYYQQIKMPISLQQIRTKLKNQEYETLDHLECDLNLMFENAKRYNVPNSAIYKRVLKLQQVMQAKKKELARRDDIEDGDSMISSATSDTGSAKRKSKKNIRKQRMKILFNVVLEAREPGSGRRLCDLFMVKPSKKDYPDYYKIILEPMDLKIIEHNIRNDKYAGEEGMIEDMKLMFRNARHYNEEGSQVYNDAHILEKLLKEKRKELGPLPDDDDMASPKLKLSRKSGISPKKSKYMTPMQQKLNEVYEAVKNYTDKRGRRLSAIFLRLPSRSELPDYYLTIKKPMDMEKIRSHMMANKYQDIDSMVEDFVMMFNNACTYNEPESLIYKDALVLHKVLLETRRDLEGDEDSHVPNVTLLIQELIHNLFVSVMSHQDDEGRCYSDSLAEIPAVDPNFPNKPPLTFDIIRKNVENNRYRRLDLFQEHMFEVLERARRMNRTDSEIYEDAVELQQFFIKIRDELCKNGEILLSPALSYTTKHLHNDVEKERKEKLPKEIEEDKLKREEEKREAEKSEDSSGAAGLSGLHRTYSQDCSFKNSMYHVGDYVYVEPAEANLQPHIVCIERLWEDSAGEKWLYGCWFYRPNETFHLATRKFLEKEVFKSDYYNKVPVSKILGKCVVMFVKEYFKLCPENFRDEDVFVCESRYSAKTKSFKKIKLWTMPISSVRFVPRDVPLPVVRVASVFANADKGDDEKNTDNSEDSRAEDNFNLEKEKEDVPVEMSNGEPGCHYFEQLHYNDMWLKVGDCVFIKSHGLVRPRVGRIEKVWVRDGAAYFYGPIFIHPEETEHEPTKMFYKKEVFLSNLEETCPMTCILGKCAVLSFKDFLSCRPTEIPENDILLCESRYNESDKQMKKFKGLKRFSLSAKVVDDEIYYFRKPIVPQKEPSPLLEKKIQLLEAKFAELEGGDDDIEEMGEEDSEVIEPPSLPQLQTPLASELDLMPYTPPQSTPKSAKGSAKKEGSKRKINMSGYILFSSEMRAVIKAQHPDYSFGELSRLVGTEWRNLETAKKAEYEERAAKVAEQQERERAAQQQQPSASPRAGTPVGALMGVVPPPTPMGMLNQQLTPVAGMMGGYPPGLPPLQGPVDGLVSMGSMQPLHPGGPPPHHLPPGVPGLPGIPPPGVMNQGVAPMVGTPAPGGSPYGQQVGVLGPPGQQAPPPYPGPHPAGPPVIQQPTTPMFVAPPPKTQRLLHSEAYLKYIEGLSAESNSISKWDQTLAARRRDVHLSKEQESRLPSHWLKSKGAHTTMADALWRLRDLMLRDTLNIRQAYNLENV

SMILES: CN(C)C/C=C/C(=O)Nc1ccc(C(=O)N2CCCC(Nc3ncc(Cl)c(-c4c[nH]c5ccccc45)n3)C2)cc1 (stereo not given)
% of control [1]: 81%

SMILES: CN(C)CCOc1ccc(-c2nc(-c3ccncc3)c(-c3ccc4c(c3)CC/C4=N\O)[nH]2)cc1
% of control [2]: 75%

SMILES: N#Cc1cccc(-c2c[nH]c3ncnc(N4CCOCC4)c23)c1
% of control [3]: 80% | % of control [4]: 100%

SMILES: COCC(=O)NC/C=C/c1ccc2ncnc(Nc3ccc(Oc4ccc(C)nc4)c(C)c3)c2c1 [CP-724714]
% of control [5]: 100%

Continued, values first:

% activity [6]: > 90%
SMILES: CNCCN1CCC(c2cc(CN(C)C(=O)c3cccc(Oc4ccccc4)c3)ccn2)CC1

% of control ([7]; at 1 µM): 79% | % of control ([7]; at 5 µM): 54%
SMILES: C=CC(=O)Nc1cccc(C(=O)Nc2ccc(Nc3cc(-c4[nH]c(SC)nc4C)ccn3)cc2)c1

dTM [8]: < 2 K
SMILES: CN(C)CCCOc1ccc(-c2cc(NCCCn3cccn3)nc(S(C)(=O)=O)n2)cc1

% of inhibition [9]: -32.2%
SMILES: Cn1cc(-n2cnc3c(NCc4nc5cc(Cl)c(Cl)cc5[nH]4)nc(N4CCOCC4)nc32)cn1
